Assay [1] has as its target T1, CCR2 (Mus musculus, UniProt P51683).
T1 construct: tissue Jackson laboratory (mice); host or cells: whole animal: WT C57BL/6J mice; CCR2 on circulating classic monocytes / infiltrating macrophages
The assay can be described thus: RS-504393 CCR2 blockade in early-phase TAC pressure overload hypertrophy. Format: in vivo. To be noted: for cardiac macrophage populations / numbers: before and after 1-wk TAC, 2 mg/kg twice daily oral gavage, FACS (FIG. 7), 2 mg/kg. The method, then:
(§1) Macrophage depletion was achieved by injection (i.v.) of Clodronate liposomes at 500 ug/kg on every other day, starting from 1-day before or 14-day after cardiac surgery as indicated in specific experiments. PBS-containing liposomes were used as vehicle control (Veh). Clodronate liposomes and control liposomes were obtained from the nonprofit Consortium Foundation Clodronate Liposomes. To inhibit monocyte trafficking in vivo, RS-504393 was dissolved in DMSO, diluted 1:20 in PBS and administrated at 2 mg/kg twice daily by oral gavage, starting from 1-3 day before or 14-day after cardiac surgery as indicated in specific experiments. PBS with 5% DMSO was used as vehicle control.
Transverse aortic constriction (TAC) model and echocardiography were performed as described previously. Mice were anaesthetized by ketamine xylazine cocktail (100 uL i.p.) for TAC surgery to reduce aorta diameter to 27-gauge. Buprenorphine was administrated daily (i.p.) for first 5-days post-TAC. Blood pressure gradient across ligation site was confirmed by Doppler echography. For echocardiography, mice were anaesthetized by inhalation of 1% isoflurane vaporized in 100% oxygen. LV function was recorded at parasternal short axis view in B-mode and M-mode on a VEVO 770 High-Resolution In Vivo Micro-Imaging System (VisualSonics). ECHO data were recorded at steady heart rate above 500 bpm. LV function was calculated as ejection fraction (EF) or fractional shortening (FS).
Peritoneal macrophages were collected as described previously. Cardiac macrophages were gated from whole heart cells using surface antibodies (CD45+CD11b+F4/80+Ly6G-CD64+). Mouse heart is perfused, excised, minced, digested with Type I collagenase, mechanically disrupted and filtered through 70 μm cell strainer to get single cell suspension. Cells are collected by centrifugation, subjected to live-death dye and surface antibody staining, and analyzed by flow cytometry. Cells were also sorted by flow cytometry to collect cardiac macrophages. […] After RBC lysis, cells were stained with surface antibodies and analyzed by FACS. […]

Assay [2] has as its target T1, CCR2. The assay can be described thus: RS-504393 administration from day 14 post-TAC in established pressure overload hypertrophy. Format: in vivo. To be noted: established POH. Here is the method: as §1
Transverse aortic constriction (TAC) model and echocardiography were performed as described previously. […] LV function was recorded at parasternal short axis view in B-mode and M-mode on a VEVO 770 High-Resolution In Vivo Micro-Imaging System (VisualSonics). ECHO data were recorded at steady heart rate above 500 bpm. LV function was calculated as ejection fraction (EF) or fractional shortening (FS).
Tissue samples were homogenized in QIAzol lysis reagent (Qiagen, 79306) with a TissueLyser (Qiagen). […] Quantitative real-time PCR (qPCR) was performed with either the TaqMan method (Roche Universal ProbeLibrary System) or the SYBR green method on a ViiA 7 Real-Time PCR System (Applied Biosystems). […]

Consider one compound from patent US20190284176A1, “COMPOSITIONS AND METHODS FOR TREATING CARDIOMYOPATHY” (CASE WESTERN RESERVE UINVERSITY, priority 2018, published 2019).

“Also recorded” adds a separate entry of the source.

T1 sequence (P51683 whole entry): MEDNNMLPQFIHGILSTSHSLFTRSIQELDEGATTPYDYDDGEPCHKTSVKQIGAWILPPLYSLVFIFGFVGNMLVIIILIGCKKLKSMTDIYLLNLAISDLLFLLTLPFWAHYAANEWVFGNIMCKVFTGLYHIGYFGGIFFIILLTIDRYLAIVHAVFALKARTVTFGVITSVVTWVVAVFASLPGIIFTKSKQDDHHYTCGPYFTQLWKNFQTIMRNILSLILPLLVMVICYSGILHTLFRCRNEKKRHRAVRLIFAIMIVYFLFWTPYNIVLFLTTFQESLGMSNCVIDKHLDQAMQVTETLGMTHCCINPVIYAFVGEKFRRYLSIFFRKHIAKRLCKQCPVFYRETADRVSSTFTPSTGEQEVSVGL

For `Cc1ccc2c(c1)C1(CCN(CCc3nc(-c4ccccc4)oc3C)CC1)OC(=O)N2` [RS-504393], the figures for the “cardiac macrophage populations / numbers” value at CCR2 [1] and on CCR2 [1] (listed as RS) were “no effect” and “no impact”, respectively. On CCR2 [1] (before and after 1 wk post-TAC, echocardiography (FIG. 3A), listed as RS), the “cardiac function / POH” value is recorded as “no effect; also recorded: no impact”. Further, the cardiac hypertrophy entry at CCR2 [2] (RS oral administration 2 wk after TAC (FIG. 16)) was “without affecting cardiac hypertrophy”. The “cardiac function (LV function by echocardiography)” value at CCR2 [2] (RS oral administration 2 wk after TAC, to 6-week post-TAC (FIG. 16)) is given as “preserved cardiac function”.
